Tests used:
Assay in all cases: relative viability (nuclei count vs DMSO), 5 days (fraction); higher = more cells survive
201T = system: 201T
How it was run: (§1)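 Lung cancer cell lines in 1536-well plates got either a single drug or a fixed anchor-drug dose together with five library-drug doses (not always all listed) in √10 steps, by pin tool, on the day after seeding. Nuclei were counted after 5 days, and relative viability is the treated-to-vehicle ratio of nuclei counts. Values are medians of duplicate plates.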

BEN = system: BEN
How it was run: as §1

COR-L 105 = system: COR-L 105
How it was run: as §1

COR-L23 = system: COR-L23
How it was run: as §1

EKVX = system: EKVX
How it was run: as §1

HARA = system: HARA
How it was run: as §1

HCC-15 = system: HCC-15
How it was run: as §1

HCC-366 = system: HCC-366
How it was run: as §1

HCC-78 = system: HCC-78
How it was run: as §1

HCC-827 = system: HCC-827
How it was run: as §1

LC-2-ad = system: LC-2-ad
How it was run: as §1

LU99A = system: LU99A
How it was run: as §1

LXF-289 = system: LXF-289
How it was run: as §1

NCI-H1734 = system: NCI-H1734
How it was run: as §1

NCI-H1755 = system: NCI-H1755
How it was run: as §1

NCI-H1944 = system: NCI-H1944
How it was run: as §1

NCI-H1975 = system: NCI-H1975
How it was run: as §1

NCI-H1993 = system: NCI-H1993
How it was run: as §1

NCI-H3122 = system: NCI-H3122
How it was run: as §1

NCI-H596 = system: NCI-H596
How it was run: as §1

RERF-LC-KJ = system: RERF-LC-KJ
How it was run: as §1

SK-LU-1 = system: SK-LU-1
How it was run: as §1

O=C(O)CCCCC(CCSCc1ccccc1)SCc1ccccc1 (centres undefined) [CPI-613] + C[C@]1(O)C[C@@H](c2nc(-c3ccc4ccc(-c5ccccc5)nc4c3)c3c(N)nccn32)C1 [Linsitinib] (partner 1 µM)
relative viability (201T; first compound 5 µM): 0.98
relative viability (201T; first compound 15.81 µM): 0.969
relative viability (201T; first compound 50 µM): 1.01
relative viability (201T; first compound 158.11 µM): 0.864
relative viability (201T; first compound 500 µM): 0.8
relative viability (BEN; first compound 5 µM): 0.881
relative viability (BEN; first compound 15.81 µM): 0.784
relative viability (BEN; first compound 50 µM): 0.941
relative viability (BEN; first compound 158.11 µM): 0.747
relative viability (BEN; first compound 500 µM): 0.72
relative viability (COR-L 105; first compound 5 µM): 1.15
relative viability (COR-L 105; first compound 15.81 µM): 0.77
relative viability (COR-L 105; first compound 50 µM): 0.902
relative viability (COR-L 105; first compound 158.11 µM): 0.664
relative viability (COR-L 105; first compound 500 µM): 0.181
relative viability (COR-L23; first compound 5 µM): 0.851
relative viability (COR-L23; first compound 15.81 µM): 0.918
relative viability (COR-L23; first compound 50 µM): 0.779
relative viability (COR-L23; first compound 158.11 µM): 0.334
relative viability (COR-L23; first compound 500 µM): 0.0236
relative viability (EKVX; first compound 5 µM): 0.993
relative viability (EKVX; first compound 15.81 µM): 0.988
relative viability (EKVX; first compound 50 µM): 0.955
relative viability (EKVX; first compound 158.11 µM): 1.04
relative viability (EKVX; first compound 500 µM): 1.05
relative viability (HARA; first compound 5 µM): 0.906
relative viability (HARA; first compound 15.81 µM): 0.864
relative viability (HARA; first compound 50 µM): 0.991
relative viability (HARA; first compound 158.11 µM): 0.44
relative viability (HARA; first compound 500 µM): 0.0277
relative viability (HCC-15; first compound 5 µM): 0.878
relative viability (HCC-15; first compound 15.81 µM): 0.845
relative viability (HCC-15; first compound 50 µM): 0.794
relative viability (HCC-15; first compound 158.11 µM): 0.467
relative viability (HCC-15; first compound 500 µM): 0.359
relative viability (HCC-366; first compound 5 µM): 0.601
relative viability (HCC-366; first compound 15.81 µM): 0.637
relative viability (HCC-366; first compound 50 µM): 0.597
relative viability (HCC-366; first compound 158.11 µM): 0.587
relative viability (HCC-366; first compound 500 µM): 0.0054
relative viability (HCC-78; first compound 5 µM): 0.48
relative viability (HCC-78; first compound 15.81 µM): 0.538
relative viability (HCC-78; first compound 158.11 µM): 0.573
relative viability (HCC-78; first compound 500 µM): 0.487
relative viability (HCC-827; first compound 5 µM): 0.967
relative viability (HCC-827; first compound 15.81 µM): 0.892
relative viability (HCC-827; first compound 50 µM): 0.906
relative viability (HCC-827; first compound 158.11 µM): 0.613
relative viability (HCC-827; first compound 500 µM): 0.0916
relative viability (LC-2-ad; first compound 5 µM): 0.805
relative viability (LC-2-ad; first compound 15.81 µM): 0.847
relative viability (LC-2-ad; first compound 50 µM): 0.738
relative viability (LC-2-ad; first compound 158.11 µM): 0.251
relative viability (LC-2-ad; first compound 500 µM): 0.0081
relative viability (LU99A; first compound 5 µM): 0.519
relative viability (LU99A; first compound 15.81 µM): 0.461
relative viability (LU99A; first compound 50 µM): 0.561
relative viability (LU99A; first compound 158.11 µM): 0.273
relative viability (LU99A; first compound 500 µM): 0.0476
relative viability (LXF-289; first compound 5 µM): 0.997
relative viability (LXF-289; first compound 15.81 µM): 0.969
relative viability (LXF-289; first compound 50 µM): 0.921
relative viability (LXF-289; first compound 158.11 µM): 0.269
relative viability (LXF-289; first compound 500 µM): 0.0192
relative viability (NCI-H1734; first compound 5 µM): 0.93
relative viability (NCI-H1734; first compound 15.81 µM): 0.821
relative viability (NCI-H1734; first compound 50 µM): 0.83
relative viability (NCI-H1734; first compound 158.11 µM): 0.69
relative viability (NCI-H1734; first compound 500 µM): 0.117
relative viability (NCI-H1755; first compound 5 µM): 0.991
relative viability (NCI-H1755; first compound 15.81 µM): 0.977
relative viability (NCI-H1755; first compound 50 µM): 0.9
relative viability (NCI-H1755; first compound 158.11 µM): 0.888
relative viability (NCI-H1755; first compound 500 µM): 0.152
relative viability (NCI-H1944; first compound 5 µM): 1.31
relative viability (NCI-H1944; first compound 15.81 µM): 1.15
relative viability (NCI-H1944; first compound 50 µM): 1.14
relative viability (NCI-H1944; first compound 158.11 µM): 0.968
relative viability (NCI-H1944; first compound 500 µM): 0.787
relative viability (NCI-H1975; first compound 5 µM): 0.938
relative viability (NCI-H1975; first compound 15.81 µM): 1.03
relative viability (NCI-H1975; first compound 50 µM): 1.13
relative viability (NCI-H1975; first compound 158.11 µM): 0.541
relative viability (NCI-H1975; first compound 500 µM): 0.0601
relative viability (NCI-H1993; first compound 5 µM): 0.71
relative viability (NCI-H1993; first compound 15.81 µM): 0.671
relative viability (NCI-H1993; first compound 50 µM): 0.781
relative viability (NCI-H1993; first compound 158.11 µM): 0.61
relative viability (NCI-H1993; first compound 500 µM): 0.432
relative viability (NCI-H3122; first compound 5 µM): 0.985
relative viability (NCI-H3122; first compound 15.81 µM): 1.02
relative viability (NCI-H3122; first compound 50 µM): 0.988
relative viability (NCI-H3122; first compound 158.11 µM): 0.644
relative viability (NCI-H3122; first compound 500 µM): 0.0543
relative viability (NCI-H596; first compound 5 µM): 1.02
relative viability (NCI-H596; first compound 15.81 µM): 1.04
relative viability (NCI-H596; first compound 50 µM): 1.14
relative viability (NCI-H596; first compound 158.11 µM): 0.519
relative viability (NCI-H596; first compound 500 µM): 0.0361
relative viability (RERF-LC-KJ; first compound 5 µM): 0.878
relative viability (RERF-LC-KJ; first compound 15.81 µM): 0.869
relative viability (RERF-LC-KJ; first compound 50 µM): 0.887
relative viability (RERF-LC-KJ; first compound 158.11 µM): 0.87
relative viability (RERF-LC-KJ; first compound 500 µM): 0.885
relative viability (SK-LU-1; first compound 5 µM): 1.04
relative viability (SK-LU-1; first compound 15.81 µM): 0.93
relative viability (SK-LU-1; first compound 50 µM): 0.893
relative viability (SK-LU-1; first compound 158.11 µM): 0.177
relative viability (SK-LU-1; first compound 500 µM): 0.122
